The values that follow come from ChEMBL document CHEMBL5674877, “PRMT5: A novel regulator of Hepatitis B virus replication and an arginine methylase of HBV core” (PLoS One, 2017).

The structures appear in SMILES notation.

Common to all, as to format: cell-based
Assay [1] concerns the target Protein arginine N-methyltransferase 5 (Homo sapiens) (UniProt O14744). Description: Inhibition of PRMT5 in human HepG2_hNTCP cells transfected with constant amounts of HBc-HA assessed as reduction in symmetric arginine dimethylation of HBc at 0.5 to 500 nM incubated for 72 hrs by Western blot analysis. As to conditions: HepG2-hNTCP, dose 0.5-500 nM.
Assay [2] has the same target. The experiment in a line: Inhibition of PRMT5 in human HepG2_hNTCP cells transfected with constant amounts of HBc-HA assessed as decrease in intensity of methylation of SmB/B' at 0.5 to 500 nM incubated for 72 hrs by Western blot analysis. As to conditions: HepG2-hNTCP, dose 0.5-500 nM. Background: A western blot detects proteins with antibodies after separation by electrophoresis.

The target is the same in assay [3]. The experiment in a line: Inhibition of PRMT5 in human HepG2_hNTCP cells transfected with constant amounts of HBc-HA assessed as decrease in intensity of methylation of SmD3 at 0.5 to 500 nM incubated for 72 hrs by Western blot analysis. As to conditions: HepG2-hNTCP, dose 0.5-500 nM.
Assay [4] shares this target. The experiment in a line: Inhibition of PRMT5 in human HepG2_hNTCP cells transfected with constant amounts of HBc-HA assessed as reduction in symmetric arginine dimethylation of HBc at 5 nM incubated for 72 hrs by Western blot analysis relative to control. As to conditions: HepG2-hNTCP.

Chain of Protein arginine N-methyltransferase 5 (Homo sapiens) (O14744 whole entry): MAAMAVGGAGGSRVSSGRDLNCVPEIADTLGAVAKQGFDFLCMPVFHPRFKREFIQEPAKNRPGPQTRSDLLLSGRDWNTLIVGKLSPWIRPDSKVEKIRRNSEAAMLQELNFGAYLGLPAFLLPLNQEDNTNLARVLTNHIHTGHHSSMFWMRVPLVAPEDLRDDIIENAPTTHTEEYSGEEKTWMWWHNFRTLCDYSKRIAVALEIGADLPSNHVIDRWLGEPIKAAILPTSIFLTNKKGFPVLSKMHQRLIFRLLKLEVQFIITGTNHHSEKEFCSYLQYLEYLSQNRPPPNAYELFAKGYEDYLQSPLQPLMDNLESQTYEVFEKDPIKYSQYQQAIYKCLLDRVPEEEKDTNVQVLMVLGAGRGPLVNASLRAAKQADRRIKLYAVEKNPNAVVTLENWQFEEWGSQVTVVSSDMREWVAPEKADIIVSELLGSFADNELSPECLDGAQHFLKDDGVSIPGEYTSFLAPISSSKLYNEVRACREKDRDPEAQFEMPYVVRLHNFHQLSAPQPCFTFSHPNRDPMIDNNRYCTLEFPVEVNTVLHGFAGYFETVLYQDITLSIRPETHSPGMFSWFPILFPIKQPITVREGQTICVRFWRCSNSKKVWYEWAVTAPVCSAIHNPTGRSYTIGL

As for `O=C(NC[C@H](O)CN1CCc2ccccc2C1)c1ccnc(NC2CCC2)c1`, the inhibition entry in assay [1], in assay [2] and in assay [3] was “Dose-Dependent Effect” throughout. Besides, in assay [4], the fold change (FC) turned out to be 0.5.
